Test results taken from US7560609B2, “Diabetic model” (priority 2001, dated 2009).

Assay: Insulin sensitivity test
Format: in vivo, bank voles
Settings: 60 minutes following insulin
Procedure: In the Group A bank voles (n=101), four female animals were found positive for glucosuria and blood glucose values of 215, 302, 313 and 340 mg/dl, respectively, In the remaining bank voles, the mean blood glucose±S.D. was normally distributed at 101±28 mg/dl. The body weight of the trapped voles from group A ranged from 8.5-28.4 g, the mean value±S.D. was 19±5 g. Occasional hyperglycemic and glucosuric bank voles may therefore be trapped in the wild. Whether these four animals had stress-induced hyperglycemia or overt diabetes remains to be established. […] As many as 18/22 (82%) had ketones and were polydipsic. […] We therefore next examined the pancreas histology in non-diabetic and diabetic bank voles to test if the classification of type 1 diabetes was supported by a loss of beta cells.

Substance: Actrapid: insulin (Actrapid, Novo Nordisk, Copenhagen, Denmark) used in the insulin sensitivity test
- decrease in blood glucose (eight animals with blood glucose <120 mg/dl): 40%
- decrease in blood glucose (four animals with blood glucose at 120-200 mg/dl): 60%
- decrease in blood glucose (four animals with blood glucose levels above 200 mg/dl): 30%
